The IC50 is the concentration that gives 50% inhibition.

For one assay, the target named is human full-length MKNK1 (Homo sapiens (Human), UniProt Q9BUB5, T344D). The assay can be described thus: MKNK1 kinase high ATP assay (TR-FRET, 2 mM ATP). It is filed as biochemical. The procedure: MKNK1 Kinase High ATP Assay
MKNK1-inhibitory activity at high ATP of compounds of the present invention after their preincubation with MKNK1 was quantified employing the TR-FRET-based MKNK1 high ATP assay as described in the following paragraphs.
A recombinant fusion protein of Glutathione-S-Transferase (GST, N-terminally) and human full-length MKNK1 (amino acids 1-424 and T344D of accession number BAA 19885.1), expressed in insect cells using baculovirus expression system and purified via glutathione sepharose affinity chromatography, was purchased from Carna Biosciences (product no 02-145) and used as enzyme. As substrate for the kinase reaction the biotinylated peptide biotin-Ahx-[…] (C-terminus in amide form) was used, which can be purchased e.g. from the company Biosyntan (Berlin-Buch, Germany).
(§1) For the assay 50 nL of a 100 fold concentrated solution of the test compound in DMSO was pipetted into a black low volume 384 well microtiter plate (Greiner Bio-One, Frickenhausen, Germany), 2 μL of a solution of MKNK1 in aqueous assay buffer [50 mM HEPES pH 7.5, 5 mM magnesium chloride, 1.0 mM dithiothreitol, 0.005% (v/v) Nonidet-P40 (Sigma)] was added and the mixture was incubated for 15 min at 22° C. to allow pre-binding of the test compounds to the enzyme before the start of the kinase reaction. Then the kinase reaction was started by the addition of 3 μL of a solution of adenosine-tri-phosphate (ATP, 3.3 mM=>final conc. in the 5 μL assay volume is 2 mM) and substrate (0.1 μM=>final conc. in the 5 μL assay volume is 0.06 μM) in assay buffer and the resulting mixture was incubated for a reaction time of 30 min at 22° C. The concentration of MKNK1 was adjusted depending of the activity of the enzyme lot and was chosen appropriate to have the assay in the linear range, typical concentrations were in the range of 0.003 μg/mL. The reaction was stopped by the addition of 5 μL of a solution of TR-FRET detection reagents (5 nM streptavidine-XL665 [Cisbio Bioassays, Codolet, France] and 1 nM anti-ribosomal protein S6 (pSer236)-antibody from Invitrogen [#44921G] and 1 nM LANCE EU-W1024 labeled ProteinG [Perkin-Elmer, product no. AD0071]) in an aqueous EDTA-solution (100 mM EDTA, 0.1% (w/v) bovine serum albumin in 50 mM HEPES pH 7.5).
(§2) The resulting mixture was incubated for 1 h at 22° C. to allow the formation of complex between the phosphorylated biotinylated peptide and the detection reagents. Subsequently the amount of phosphorylated substrate was evaluated by measurement of the resonance energy transfer from the Eu-chelate to the streptavidine-XL. Therefore, the fluorescence emissions at 620 nm and 665 nm after excitation at 350 nm were measured in a TR-FRET reader, e.g. a Rubystar (BMG Labtechnologies, Offenburg, Germany) or a Viewlux (Perkin-Elmer). The ratio of the emissions at 665 nm and at 622 nm was taken as the measure for the amount of phosphorylated substrate.

The target of a further assay is human full-lengt MKNK1 (Homo sapiens (Human), UniProt Q9BUB5, T344D). As to the kind of experiment: MKNK1 kinase assay (TR-FRET, 10 μM ATP). Type of assay: biochemical.
Text: MKNK1-inhibitory activity of compounds of the present invention was quantified employing the MKNK1 TR-FRET assay as described in the following paragraphs.
A recombinant fusion protein of Glutathione-S-Transferase (GST, N-terminally) and human full-lengt MKNK1 (amino acids 1-424 and T344D of accession number BAA 19885.1), expressed in insect cells using baculovirus expression system and purified via glutathione sepharose affinity chromatography, was purchased from Carna Biosciences (product no 02-145) and used as enzyme. As substrate for the kinase reaction the biotinylated peptide biotin-Ahx-[…] (C-terminus in amide form) was used which can be purchased e.g. form the company Biosyntan (Berlin-Buch, Germany).
as §1, with “16.7 μM=>final” for “3.3 mM=>final”, “10 μM)” for “2 mM)”, “45” for “30”, “0.05 μg/ml.” for “0.003 μg/mL.”
as §2
(Time-resolved FRET reads energy transfer from a long-lived donor to a nearby acceptor.)

The mark [1] stands for this setting: read-out: IC50 MKNK1 (2 mM ATP), 15 min preincubation, GST-MKNK1 T344D.
The mark [2] stands for this setting: read-out: IC50 MKNK1 (10 μM ATP), 15 min preincubation, GST-MKNK1 T344D.
The mark [3] stands for this setting: 15 min preincubation, GST-MKNK1 T344D.

Molecules are shown by their SMILES. Like-named read-outs stand apart in the source and are kept apart here.

Chain of human full-length MKNK1 (Q9BUB5 other isoform, or with tags, fused parts or gaps T344D): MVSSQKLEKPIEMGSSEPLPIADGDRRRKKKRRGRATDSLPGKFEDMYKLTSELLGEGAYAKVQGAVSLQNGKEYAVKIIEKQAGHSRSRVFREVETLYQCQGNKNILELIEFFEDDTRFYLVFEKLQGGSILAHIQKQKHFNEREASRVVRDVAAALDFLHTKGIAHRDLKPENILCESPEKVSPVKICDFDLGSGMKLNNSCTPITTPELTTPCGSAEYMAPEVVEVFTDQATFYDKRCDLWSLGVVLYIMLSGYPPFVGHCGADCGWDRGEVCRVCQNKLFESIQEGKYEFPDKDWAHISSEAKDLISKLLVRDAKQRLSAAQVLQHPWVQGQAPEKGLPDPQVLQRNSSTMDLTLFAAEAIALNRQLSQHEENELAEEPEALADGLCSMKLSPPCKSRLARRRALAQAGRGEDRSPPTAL
Chain of human full-lengt MKNK1 (Q9BUB5 other isoform, or with tags, fused parts or gaps T344D): as above

As for `OC[C@H]1C[C@H](Nc2ccc3ncc(-c4cc5ccccc5o4)n3n2)C1` [Example 1, (trans-3-{[3-(1-Benzofuran-2-yl)imidazo[1,2-b]pyridazin-6-yl]amino}cyclobutyl)methanol], the results for the IC50 at human full-length MKNK1 (setting [1]) and at human full-lengt MKNK1 (setting [2]) were 11 nM and 8 nM, respectively.

As to `O[C@H]1C[C@H](CNc2ccc3ncc(-c4cc5ccccc5o4)n3n2)C1` [Example 2, trans-3-({[3-(1-Benzofuran-2-yl)imidazo[1,2-b]pyridazin-6-yl]amino}methyl)-cyclobutanol], the half-maximal inhibitory concentration (IC50) on human full-length MKNK1 (setting [3]) amounted to 21 nM; against human full-lengt MKNK1 (setting [3]), 9 nM.

With `O[C@H]1CCC[C@H]1Nc1ccc2ncc(-c3cc4ccccc4o3)n2n1` [Example 3, (1S,2R)-2-{[3-(1-Benzofuran-2-yl)imidazo[1,2-b]pyridazin-6-yl]amino}cyclopentanol], the 50% inhibitory concentration (IC50) at human full-length MKNK1 (setting [1]) worked out at 30 nM; on human full-lengt MKNK1 (setting [2]), 10 nM.

As to `O[C@@H]1CCC[C@H]1Nc1ccc2ncc(-c3cc4ccccc4o3)n2n1` [Example 4, (1R,2R)-2-{[3-(1-Benzofuran-2-yl)imidazo[1,2-b]pyridazin-6-yl]amino}cyclopentanol], the IC50 was found to be 41 nM at human full-length MKNK1 (setting [1]) and 14 nM on human full-lengt MKNK1 (setting [2]).

Consider `O[C@@H]1CCCC[C@@H]1Nc1ccc2ncc(-c3cc4ccccc4o3)n2n1` [Example 5, (1R,2S)-2-{[3-(1-Benzofuran-2-yl)imidazo[1,2-b]pyridazin-6-yl]amino}cyclohexanol], for which the IC50 at human full-length MKNK1 (setting [1]) was 49 nM; on human full-lengt MKNK1 (setting [2]) it was 42 nM.

On to `O[C@H]1CCC[C@@H]1Nc1ccc2ncc(-c3cc4ccccc4o3)n2n1` [Example 6, (1S,2S)-2-{[3-(1-Benzofuran-2-yl)imidazo[1,2-b]pyridazin-6-yl]amino}cyclopentanol], for which the results for the concentration for half-maximal inhibition (IC50) at human full-length MKNK1 (setting [1]) and on human full-lengt MKNK1 (setting [2]) were 52 nM and 22 nM, respectively.

As to `O[C@@H]1CCC[C@@H]1Nc1ccc2ncc(-c3cc4ccccc4o3)n2n1` [Example 7, (1R,2S)-2-{[3-(1-Benzofuran-2-yl)imidazo[1,2-b]pyridazin-6-yl]amino}cyclopentanol], the values for the IC50 on human full-length MKNK1 (setting [1]) and on human full-lengt MKNK1 (setting [2]) were 66 nM and 24 nM, respectively.

Consider `O[C@H]1CCCC[C@@H]1Nc1ccc2ncc(-c3cc4ccccc4o3)n2n1` [Example 8, (1S,2S)-2-{[3-(1-Benzofuran-2-yl)imidazo[1,2-b]pyridazin-6-yl]amino}cyclohexanol], for which the IC50 at human full-length MKNK1 (setting [1]) was found to be 94 nM; at human full-lengt MKNK1 (setting [2]) it was 126 nM.

With `O[C@@H]1CCCC[C@H]1Nc1ccc2ncc(-c3cc4ccccc4o3)n2n1` [Example 9, (1R,2R)-2-{[3-(1-Benzofuran-2-yl)imidazo[1,2-b]pyridazin-6-yl]amino}cyclohexanol], the figures for the IC50 on human full-length MKNK1 (setting [1]) and on human full-lengt MKNK1 (setting [2]) were 210 nM and 318 nM, respectively.

Take `O[C@H]1CC[C@H](Nc2ccc3ncc(-c4cc5ccccc5o4)n3n2)CC1` [Example 10, trans-4-{[3-(1-Benzofuran-2-yl)imidazo[1,2-b]pyridazin-6-yl]amino}cyclohexanol]: the IC50 at human full-length MKNK1 (setting [1]) worked out at 31 nM; at human full-lengt MKNK1 (setting [2]) it was 12 nM.

As to `O[C@H]1C[C@H](Nc2ccc3ncc(-c4cc5cnccc5o4)n3n2)C1` [Example 11, trans-3-{[3-(Furo[3,2-c]pyridin-2-yl)imidazo[1,2-b]pyridazin-6-yl]amino}cyclobutanol], the IC50 at human full-length MKNK1 (setting [1]) was 52 nM; on human full-lengt MKNK1 (setting [2]), 14 nM.

For the origin of these results see patent publication US9783543B2, “Aminoimidazopyridazines” (BAYER PHARMA AKTIENGESELLSCHAFT, priority 2012, dated 2017).
